Laboratory results: PMC6199744, “Development of Chemical Proteomics for the Folateome and Analysis of the Kinetoplastid Folateome” (ACS Infectious Diseases, 2018)
Read-outs that look alike come from different tables or passages of the source.

System: T. brucei lysate proteins
Assay type: binding, Trypanosoma brucei

## CCCCCCOc1cccc(Cc2cnc(N)nc2N)c1 [compound 2]
Relative to vehicle control = 1, protein TB09.160.3270 ATP-DEPENDENT DEAD BOX HELICASE, PUTATIVE
  fold change: 1
Relative to vehicle control = 1, protein TB09.160.4250 TR[…]
  fold change: 0.99
Relative to vehicle control = 1, protein TB09.211.3540 GLYCEROL KINASE, GLYCOSOMAL
  fold change: 0.98
Relative to vehicle control = 1, protein TB11.01.1290 14-3-3-I PROTEIN
  fold change: 0.88
Relative to vehicle control = 1, protein TB11.02.0730 METACASPASE
  fold change: 1.1
Relative to vehicle control = 1, protein TB11.02.4700 14-3-3 PROTEIN
  fold change: 1
Relative to vehicle control = 1, protein TB11.03.0815 DYNEIN LIGHT CHAIN
  fold change: 0.94
Relative to vehicle control = 1, protein TB11.50.0007 DYNEIN LIGHT CHAIN LC8, PUTATIVE
  fold change: 0.99
Relative to vehicle control = 1, protein TB427TMP.01.1830 HY[…], CONSERVED
  fold change: 1
Relative to vehicle control = 1, protein TB427TMP.01.6880 CYTOSOLIC COAT PROTEIN, PUTATIVE
  fold change: 1
Relative to vehicle control = 1, protein TB427TMP.01.7490 HY[…], CONSERVED
  fold change: 0.96
Relative to vehicle control = 1, protein TB427TMP.01.7530 HY[…], CONSERVED
  fold change: 0.98
Relative to vehicle control = 1, protein TB427TMP.02.1460 HY[…], CONSERVED
  fold change: 0.95
Relative to vehicle control = 1, protein TB427TMP.02.2120 NUCLEOPORIN 48
  fold change: 0.94
Relative to vehicle control = 1, protein TB427TMP.02.2970 KINESIN, PUTATIVE
  fold change: 0.89
Relative to vehicle control = 1, protein TB427TMP.02.3120 MALIC ENZYME, PUTATIVE
  fold change: 0.98
Relative to vehicle control = 1, protein TB427TMP.02.4550 HY[…], CONSERVED
  fold change: 0.99
Relative to vehicle control = 1, protein TB427TMP.02.5450 GLUCOSE-REGULATED PROTEIN 78, PUTATIVE
  fold change: 0.98
Relative to vehicle control = 1, protein TB427TMP.02.5660 HY[…], CONSERVED
  fold change: 0.85
Relative to vehicle control = 1, protein TB427TMP.03.0090 RIBOKINASE, PUTATIVE
  fold change: 0.93
Relative to vehicle control = 1, protein TB427TMP.03.0460 HY[…], CONSERVED
  fold change: 0.99
Relative to vehicle control = 1, protein TB427TMP.160.4770 PROTEIN KINASE, PUTATIVE
  fold change: 1
Relative to vehicle control = 1, protein TB427TMP.160.4910 FLAVOPROTEIN MONOOXYGENASE, PUTATIVE
  fold change: 0.93
Relative to vehicle control = 1, protein TB427TMP.18.0005 HY[…], CONSERVED
  fold change: 0.95
Relative to vehicle control = 1, protein TB427TMP.39.0006 T[…] EIF2B DELTA SUBUNIT, PUTATIVE
  fold change: 0.96
Relative to vehicle control = 1, protein TB427.01.4050 PROTEIN P[…] EF-HAND DOMAINS (PPEF)
  fold change: 0.95
Relative to vehicle control = 1, protein TB427.03.3160 POLY(A) POLYMERASE
  fold change: 0.78
Relative to vehicle control = 1, protein TB427.03.3560 HY[…], CONSERVED
  fold change: 0.98
Relative to vehicle control = 1, protein TB427.03.5420 PROTEIN TRANSPORT PROTEIN SEC24
  fold change: 0.94
Relative to vehicle control = 1, protein TB427.04.1510 PHOSPHOLIPID-TRA[…], PUTATIVE
  fold change: 0.93
Relative to vehicle control = 1, protein TB427.05.1320 HY[…], CONSERVED
  fold change: 0.93
Relative to vehicle control = 1, protein TB427.05.2320 HY[…], CONSERVED
  fold change: 0.8
Relative to vehicle control = 1, protein TB427.05.300 THYMINE-7-HYDROXYLASE, PUTATIVE
  fold change: 0.92
Relative to vehicle control = 1, protein TB427.05.3800 GLUTAMINE HYDROLYSING (NOT AMMONIA-DEPENDENT) […] PHOSPHATE SYNTHASE, PUTATIVE
  fold change: 0.85
Relative to vehicle control = 1, protein TB427.06.2550 RNA-BINDING PROTEIN, PUTATIVE
  fold change: 0.84
Relative to vehicle control = 1, protein TB427.06.3650 ADP-RI[…], PUTATIVE
  fold change: 0.97
Relative to vehicle control = 1, protein TB427.06.3860 HY[…], CONSERVED
  fold change: 0.94
Relative to vehicle control = 1, protein TB427.07.2570 MRNA […], PUTATIVE
  fold change: 0.89
Relative to vehicle control = 1, protein TB427.08.3150 T-COMPLEX PROTEIN 1, GAMMA SUBUNIT, PUTATIVE
  fold change: 0.92
Relative to vehicle control = 1, protein TB427.08.3490 HY[…], CONSERVED
  fold change: 1.2
Relative to vehicle control = 1, protein TB427.08.5460 FLAGELLAR CALCIUM-BINDING PROTEIN
  fold change: 0.93
Relative to vehicle control = 1, protein TB427.08.5760 HY[…], CONSERVED
  fold change: 0.96
Relative to vehicle control = 1, protein TB427.08.6110 HY[…], CONSERVED
  fold change: 0.87
Relative to vehicle control = 1, protein TB427.10.11930 NAD OR NADP DEPENDENT OXIDOREDUCTASE, PUTATIVE
  fold change: 0.92
Relative to vehicle control = 1, protein TB427.10.13880 HY[…], CONSERVED
  fold change: 0.96
Relative to vehicle control = 1, protein TB427.10.14140 PYRUVATE KINASE 1
  fold change: 1.1
Relative to vehicle control = 1, protein TB427.10.14910 SA[…] GLYCOPROTEIN, PUTATIVE
  fold change: 0.99
Relative to vehicle control = 1, protein TB427.10.15180 […] PROTEIN, PUTATIVE
  fold change: 0.88
Relative to vehicle control = 1, protein TB427.10.2350 PYRUVATE DEH[…] E3 BINDING PROTEIN, PUTATIVE
  fold change: 0.77
Relative to vehicle control = 1, protein TB427.10.4940 NUCLEAR DBF2-RELATED KINASE
  fold change: 1
Relative to vehicle control = 1, protein TB427.10.7630 HY[…], CONSERVED
  fold change: 1
Relative to vehicle control = 1, protein TB927.10.12840 MIT[…] PROTEIN, PUTATIVE
  fold change: 0.98
Relative to vehicle control = 1, protein TB927.10.14980 INTR[…] PROTEIN IFT52, PUTATIVE
  fold change: 0.98
Relative to vehicle control = 1, protein TB927.1.2400 ALPHA TUBULIN
  fold change: 1
Relative to vehicle control = 1, protein TB927.10.4180 TFIIF-[…] PHOSPHATASE, PUTATIVE
  fold change: 0.94
Relative to vehicle control = 1, protein TB927.10.5330 40S RIBOSOMAL PROTEIN S18, PUTATIVE
  fold change: 0.96
Relative to vehicle control = 1, protein TB927.10.6670 DYNEIN LIGHT CHAIN, PUTATIVE
  fold change: 0.94
Relative to vehicle control = 1, protein TB927.2.2440 […]-ATPASE SUBUNIT 6
  fold change: 1.1
Relative to vehicle control = 1, protein TB927.3.1120 GTP-BINDING NUCLEAR PROTEIN RTB2, PUTATIVE
  fold change: 0.95
Relative to vehicle control = 1, protein TB927.3.3490 HIGH MOBILITY GROUP PROTEIN, PUTATIVE
  fold change: 0.99
Relative to vehicle control = 1, protein TB927.4.4650 […] SYNTHASE, PUTATIVE
  fold change: 0.56
Relative to vehicle control = 1, protein TB927.4.5310 SERINE/THREONINE-PROTEIN KINASE A, PUTATIVE
  fold change: 0.97
Relative to vehicle control = 1, protein TB927.5.1930 HY[…], CONSERVED
  fold change: 0.99
Relative to vehicle control = 1, protein TB927.6.2200 HY[…], CONSERVED
  fold change: 0.99
Relative to vehicle control = 1, protein TB927.6.4140 PAR[…] COMPONENT, PUTATIVE
  fold change: 0.94
Relative to vehicle control = 1, protein TB927.7.2700 NADH-CYTOCHROME B5 REDUCTASE, PUTATIVE
  fold change: 0.78
Relative to vehicle control = 1, protein TB927.7.4480 ADENOSINE 5'-[…], PUTATIVE
  fold change: 0.99
Relative to vehicle control = 1, protein TB927.8.1510 ATP-DEPENDENT DEAD/H RNA HELICASE, PUTATIVE
  fold change: 0.99
Vs vehicle control, protein ADENOSINE TRANSPORTER 1 (CZT00028614.1)
  fold change: 1.29
Vs vehicle control, protein TB11.01.4370 HY[…], CONSERVED
  fold change: 0.99
Vs vehicle control, protein TB11.02.1220 […] SUBUNIT 2
  fold change: 0.97
Vs vehicle control, protein TB427TMP.01.1540 HY[…], CONSERVED
  fold change: 1.1
Vs vehicle control, protein TB427TMP.01.5690 DRBD4
  fold change: 0.99
Vs vehicle control, protein TB427TMP.01.8510 T-COMPLEX PROTEIN 1, ALPHA SUBUNIT, PUTATIVE
  fold change: 0.81
Vs vehicle control, protein TB427TMP.02.5620 Tb427tmp.02.5620
  fold change: 0.97
Vs vehicle control, protein TB427TMP.160.4240 […] PROTEIN-LIKE PROTEIN
  fold change: 0.98
Vs vehicle control, protein TB427TMP.211.2730 GIM5A PROTEIN
  fold change: 1.45
Vs vehicle control, protein TB427.03.4910 SIGNAL PEPTIDE PEPTIDASE, PUTATIVE
  fold change: 1
Vs vehicle control, protein TB427.05.2890 HY[…], CONSERVED
  fold change: 0.9
Vs vehicle control, protein TB427.05.3170 RIBOSE-PHOSPHATE PYROPHOSPHOKINASE, PUTATIVE
  fold change: 1.2
Vs vehicle control, protein TB427.06.3630 SPHINGOSINE 1-PHOSPHATE LYASE, PUTATIVE
  fold change: 0.97
Vs vehicle control, protein TB427.06.4770 HY[…], CONSERVED
  fold change: 1
Vs vehicle control, protein TB427.08.550 PEPTIDE […] REDUCTASE, PUTATIVE
  fold change: 0.93
Vs vehicle control, protein TB427.10.1170 INTR[…] PROTEIN IFT172, PUTATIVE
  fold change: 0.83
Vs vehicle control, protein TB427.10.13660 HY[…], CONSERVED
  fold change: 0.93
Vs vehicle control, protein TB427.10.14550 ATP-DEPENDENT DEAD/H RNA HELICASE, PUTATIVE
  fold change: 1.1
Vs vehicle control, protein TB427.10.1510 NOT1
  fold change: 0.9
Vs vehicle control, protein TB427.10.2290 CHAPERONE PROTEIN DNAJ, PUTATIVE
  fold change: 0.96
Vs vehicle control, protein TB427.10.8190 T-COMPLEX PROTEIN 1, THETA SUBUNIT, PUTATIVE
  fold change: 0.91
Vs vehicle control, protein TB927.10.2100 […] 1-ALPHA
  fold change: 0.99
Vs vehicle control, protein TB927.10.540 ATP-DEPENDENT DEAD/H RNA HELICASE, PUTATIVE
  fold change: 0.95
Vs vehicle control, protein TB927.2.4930 ESTERASE, PUTATIVE
  fold change: 0.94
Vs vehicle control, protein TB927.5.1630 HY[…], CONSERVED
  fold change: 0.99
Vs vehicle control, protein TB927.7.2750 PROTEIN KINASE, PUTATIVE
  fold change: 0.79
Vs vehicle control, protein TB927.8.4330 SMALL GTP-BINDING PROTEIN RAB11
  fold change: 1
